Laboratory results taken from US12558396B2, “Use of cyclo(His-Pro) (CHP) for preventing, alleviating or treating peritoneal fibrosis” (NOVMETAPHARMA CO., LTD., priority 2019, dated 2026).

Legend:
Type in all cases: in vivo, C57BL/6 male mice
[1] = system: animal model of peritoneal fibrosis; assay: Peritoneal tissue staining (PAS, Masson's trichrome, Sirius red) in animal model of peritoneal fibrosis; details: FIG. 1
Procedure: (§1) In order to create an animal model of peritoneal fibrosis, 7-week-old C57BL/6 male mice were purchased from Koatech and bred under constant conditions (temperature: 22±2° C., relative humidity: 55±10%, circadian cycle: 12 hours). Five animals were grouped into one group, and water and food were freely supplied in cages, and they were used in the experiment after acclimatization for one week before the experiment. After the acclimatization period, 0.1% chlorohexidine was administered by intraperitoneal injection every 3 days for 30 days to establish an animal model of peritoneal fibrosis. […] Group 3 was orally administrated with CHP at a concentration of 17.5 mg/kg (CG-PD+CHP(17.5)), and Group 4 was orally administered with CHP at a concentration of 35 mg/kg (CG-PD+CHP(35)) through 1 mL syringes every day for 30 days.
Among the experimental animals designed in Example 1-1, the peritoneum was obtained from the mice of the groups administered with the drug and 0.1% chlorohexidine for 30 days from the xyphoid process to the upper part of the pelvic cavity, and then sacrificed with whole blood. From the skin to the parietal peritoneum, the tissues of the left abdomen were excised in a size of 0.5×1.0 cm, and some were fixed in 10% formalin for immunostaining and then embedded in paraffin. The tissue sections were cut to a thickness of 4 μm and evaluated by performing Periodic acid-Schiff (PAS) staining, Masson's trichrome (MT) staining and Sirius Red staining to check the degree of peritoneal fibrosis. After observation with an optical microscope, photographs were taken (Olympus BX-50, Olympus Optical, Tokyo, Japan).

[2] = system: animal model of peritoneal fibrosis; assay: Immunohistochemical staining of ICAM-1 and F4/80 in peritoneum of animal model of peritoneal fibrosis; details: CHP 17.5 and 35 mg/kg orally, 30 days, vs CG-PD, FIG. 2
Procedure: as §1
Peritoneal tissues were extracted from the mice of each group of Example 1-1, fixed in 10% formalin for immunostaining and then embedded in paraffin. Using the streptavidin biotin peroxidase (Vector Laboratories) method, these were reacted with each of the anti-ICAM1 antibody and the […] at 4° C. for 16 hours, followed by color development with diaminobenzidine tetrahydrochloride (DAB) to confirm the expressions.

[3] = system: animal model of peritoneal fibrosis; assay: Western blot of collagen 1, αSMA, p16 and p21 in peritoneal tissue of animal model of peritoneal fibrosis; details: Western blot corrected by GAPDH, CHP 17.5 and 35 mg/kg orally, vs CG-PD, FIGS. 3a
Procedure: as §1
Isoflurane which is necessary for anesthesia and dissection of mice in each group of Example 1-1 was purchased from Hana Pharm, and VetEquip's RC2 Rodent Circuit Controller Anesthesia System was prepared. Phosphate-buffered saline (PBS) was purchased from Hyclone. In order to isolate the peritoneal tissue of the mice, the mice were anesthetized by respiratory anesthesia with 3 to 3.5% isoflurane. After blood was drawn from the heart of anesthetized mice, the peritoneal tissue was immediately removed, washed with PBS, and 50 mg of the peritoneal tissue was cut out and placed in 500 μL of RIPA buffer containing protease and phosphatase inhibitors, and it was crushed using IKA's T10 homogenizer. After standing on ice for 15 minutes, centrifugation was performed at 15000 rpm at 4° C. The supernatant was collected and the protein concentration was measured by BCA quantitation, and in the same amount of the samples, the protein was separated using the Bolt™ protein gel electrophoresis system, and then transferred to a nitrocellulose membrane. The membrane was blocked with 5% skim milk at room temperature for 1 hour, and then reacted with primary antibodies collagen 1, αSMA, NRF2, p16, p21 and GAPDH antibodies overnight at 4° C. After washing 3 times for 10 minutes with TBST, the reaction was performed with the secondary antibodies at room temperature for 1 hour. After washing 3 times for 10 minutes with TBST, the expression level was measured by reacting with ECL. The size of the appearing band was quantified using the ImageJ program, and each band size value was divided by the GAPDH band size value and corrected. Statistical significance was analyzed using Student's t-test statistical method with the peritoneal fibrosis control group (CG-PD) (*p<0.05, […], ***p<0.0005).

[4] = system: animal model of peritoneal fibrosis; assay: Real-time PCR of collagen 1, p21 and E-cadherin in peritoneal tissue of animal model of peritoneal fibrosis; details: real-time PCR corrected by GAPDH, CHP 17.5 and 35 mg/kg orally, vs CG-PD
Procedure: as §1
Isoflurane which is necessary for anesthesia and dissection of mice in each group of Example 1-1 was purchased from Hana Pharma, and VetEquip's RC2 Rodent Circuit Controller Anesthesia System was prepared. Phosphate-buffered saline (PBS) was purchased from Hyclone. In order to isolate the peritoneal tissue of the mice, the mice were anesthetized by respiratory anesthesia with 3 to 3.5% isoflurane. After blood was drawn from the heart of the anesthetized mice, the peritoneal tissue was immediately removed, 50 mg of the peritoneum was cut, 500 μL of NucleoZOL was added, and then it was crushed using IKA's T10 homogenizer. Subsequently, RNA was extracted according to NucleoZOL's total RNA isolation protocol, and cDNA was synthesized from 1 μg of RNA by reverse transcription polymerase chain reaction using the iScript cDNA synthesis kit. The synthesized cDNA was analyzed by real-time PCR with iQ SYBR Green Supermix using forward/reverse primer sets corresponding to each gene. The expression value of each gene was corrected by dividing by the expression value of GAPDH, a housekeeping gene. Statistical significance was analyzed using Student's t-test statistical method with the peritoneal fibrosis control group (CG-PD) (*p<0.05, […], ***p<0.0005).

For `O=C1N[C@@H](Cc2cnc[nH]2)C(=O)N2CCC[C@@H]12` [CHP, cyclo(His-Pro)], the “thickened peritoneal layer (MT staining)” value ([1]; CHP 35 mg/kg administration group compared to 17.5 mg/kg administration group, oral, daily, 30 days) was “significantly reduced”, the “deposition of immune cells (PAS staining)” value ([1]; CHP 17.5 and 35 mg/kg orally every day for 30 days, 0.1% chlorohexidine i.p. model, vs fibrosis control group (CG-PD)) was “significantly reduced in a concentration-dependent manner” and the “accumulation of extracellular matrix (ECM) collagen (Sirius red staining)” value ([1]; CHP 17.5 and 35 mg/kg orally every day for 30 days) was “significantly reduced in a concentration-dependent manner”. For the same molecule, the “expression level of ICAM-1 (IHC)” value [2] was “decreased”, the “infiltration of immune cells (f4/80-positive cells, IHC)” value [2] was “rapidly decreased” and the “extracellular matrix collagen (collagen 1) protein expression” value ([3]; 3b) was “statistically significantly decreased”. The α-SMA protein expression ([3]; 3c) was “statistically significantly decreased”, the p16 protein expression ([3]; 3e) was “significantly reduced” and the p21 protein expression ([3]; 3d) was “significantly reduced”. For the same molecule, the “mRNA expression of extracellular matrix collagen 1” value ([4]; FIG. 4a) was “decreased”, the p21 gene expression ([4]; FIG. 4b) was “significantly reduced” and the “expression level of E-cadherin (gene)” value ([4]; FIG. 4c) was “significantly increased”.
